“And” between values parts separate entries of the source, which are not always exact repeats. Equal values may be shown once.

The results in this text go back to patent US11524944B2, “2-phenylpyrimidine-4-carboxamides as AHR inhibitors” (Bayer Aktiengesellschaft, priority 2017, dated 2022).

One assay concerns the target T1, Human AhR (Homo sapiens, UniProt P35869).
T1 construct: host or cells: U87 glioblastoma cells, stably transfected with a DRE firefly luciferase reporter and a constitutive renilla reporter
T1 sequence (P35869 11-848): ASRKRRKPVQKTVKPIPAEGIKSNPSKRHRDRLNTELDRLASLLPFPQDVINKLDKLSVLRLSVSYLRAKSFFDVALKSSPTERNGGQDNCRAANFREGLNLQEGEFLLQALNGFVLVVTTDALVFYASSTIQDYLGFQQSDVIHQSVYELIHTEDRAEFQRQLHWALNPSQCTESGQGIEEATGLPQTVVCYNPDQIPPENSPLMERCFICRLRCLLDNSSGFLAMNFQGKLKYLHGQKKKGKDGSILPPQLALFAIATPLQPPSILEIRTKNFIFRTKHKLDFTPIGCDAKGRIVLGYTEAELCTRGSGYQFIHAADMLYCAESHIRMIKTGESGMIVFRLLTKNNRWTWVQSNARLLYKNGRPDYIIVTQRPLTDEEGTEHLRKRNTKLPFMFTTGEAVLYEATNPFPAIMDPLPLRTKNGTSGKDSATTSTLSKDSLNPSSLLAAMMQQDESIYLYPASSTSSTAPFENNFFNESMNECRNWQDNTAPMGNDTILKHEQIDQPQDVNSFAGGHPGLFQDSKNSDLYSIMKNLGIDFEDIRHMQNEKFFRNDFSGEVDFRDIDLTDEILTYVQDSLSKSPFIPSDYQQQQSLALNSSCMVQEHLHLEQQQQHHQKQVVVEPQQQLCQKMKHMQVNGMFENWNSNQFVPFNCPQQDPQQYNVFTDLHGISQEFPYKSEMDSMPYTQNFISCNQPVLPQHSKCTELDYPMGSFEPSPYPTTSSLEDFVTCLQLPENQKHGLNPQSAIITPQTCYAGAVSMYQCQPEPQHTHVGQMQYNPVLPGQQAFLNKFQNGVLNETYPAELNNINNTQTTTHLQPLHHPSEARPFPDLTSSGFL
Kind of assay: Transactivation assay in human cell line (in vitro assay 1): antagonism. The class given is cell-based. The settings on record: U87 glioblastoma cells, AHR inducible firefly luciferase reporter (DRE), 150 μM kynurenic acid, 20 hours. The procedure: (§1) Examples were tested in selected biological assays one or more times. When tested more than once, data are reported as either average values or as median values, wherein • the average value, also referred to as the arithmetic mean value, represents the sum of the values obtained divided by the number of times tested, and • the median value represents the middle number of the group of values when ranked in ascending or descending order. If the number of values in the data set is odd, the median is the middle value. If the number of values in the data set is even, the median is the arithmetic mean of the two middle values.
Transactivation Assay in Human Cell Line (In Vitro Assay 1)
Transactivation assay was carried out in U87 glioblastoma cells (ATCC) endogenously expressing AHR. In addition the cells were stably transfected with an AHR inducible firefly luciferase reporter gene construct that carried AHR-binding sites (DRE) in its promoter and a renilla reporter gene construct with constitutively active promoter. Kynurenic acid is an endogenous AHR activating ligand and was used to prestimulate test cells prior to testing the antagonistic properties of compounds.
In Vitro Assay 1: Antagonism in Human Cell Line
Firefly luciferase and Renilla activity was determined by the DualGlo Luciferase Assay System (Promega, #2920). Renilla activity was used to assess toxic effects of compounds.

A further assay deals with T2, Mouse AhR (Mus musculus, UniProt P30561).
T2 sequence (P30561 1-848 P471L/N533S/M589L): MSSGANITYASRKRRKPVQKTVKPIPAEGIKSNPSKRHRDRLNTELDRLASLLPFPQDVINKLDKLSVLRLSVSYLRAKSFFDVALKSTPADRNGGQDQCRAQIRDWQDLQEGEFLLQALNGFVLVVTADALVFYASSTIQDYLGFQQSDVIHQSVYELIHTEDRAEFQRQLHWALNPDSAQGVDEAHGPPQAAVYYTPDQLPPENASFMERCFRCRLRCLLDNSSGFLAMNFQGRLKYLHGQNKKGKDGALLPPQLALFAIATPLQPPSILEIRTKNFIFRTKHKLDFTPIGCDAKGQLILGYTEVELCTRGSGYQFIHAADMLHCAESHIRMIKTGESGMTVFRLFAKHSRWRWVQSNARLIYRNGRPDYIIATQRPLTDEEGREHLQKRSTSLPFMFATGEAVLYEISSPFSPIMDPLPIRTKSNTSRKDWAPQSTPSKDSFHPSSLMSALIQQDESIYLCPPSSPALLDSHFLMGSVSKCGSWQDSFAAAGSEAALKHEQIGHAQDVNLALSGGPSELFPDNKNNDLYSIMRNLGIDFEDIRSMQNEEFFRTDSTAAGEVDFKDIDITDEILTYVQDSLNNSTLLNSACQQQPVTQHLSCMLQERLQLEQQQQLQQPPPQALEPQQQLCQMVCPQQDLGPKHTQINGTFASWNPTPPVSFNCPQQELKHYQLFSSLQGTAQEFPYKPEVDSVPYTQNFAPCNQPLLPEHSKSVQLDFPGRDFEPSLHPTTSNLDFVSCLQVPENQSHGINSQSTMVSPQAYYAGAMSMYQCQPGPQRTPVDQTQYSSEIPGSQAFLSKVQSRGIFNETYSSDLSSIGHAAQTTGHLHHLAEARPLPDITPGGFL
Nature of the assay: Transactivation assay in mouse cell line (in vitro assay 2): antagonism. The note with it: Hepa 1c1c7 cells, AHR inducible firefly luciferase reporter (DRE), 200 μM kynurenic acid, 20 hours. The class given is cell-based. The procedure:
as §1
Transactivation Assay in Mouse Cell Line (In Vitro Assay 2)
Transactivation assay was carried out in Hepa 1c1c7 cells (ATCC #CRL-2026) endogenously expressing AHR. In addition the cells were stably transfected with an AHR inducible firefly luciferase reporter gene construct that carried AHR-binding sites (DRE) in its promoter. Kynurenic acid is an endogenous AHR activating ligand and was used to prestimulate test cells prior to testing the antagonistic properties of compounds.
In Vitro Assay 2: Antagonism in Mouse Cell Line
Firefly luciferase activity was determined by the SteadyGlo Luciferase Assay System (Promega, #E2550).

Regarding `C[C@H](CO)NC(=O)c1cc(-c2ccc(Cl)cc2)nc(-c2cccc(F)c2)n1` [Example 2, 6-(4-Chlorophenyl)-2-(3-fluorophenyl)-N-[(2R)-1-hydroxypropan-2-yl]pyrimidine-4-carboxamide], the figures for the IC50 on Human AhR and against Mouse AhR were 5.88 nM and 13.3 nM, respectively.
`C[C@@H](CO)NC(=O)c1cc(-c2ccc(Cl)cc2)nc(-c2ccc(Cl)cc2)n1` [Example 3, 2,6-Bis(4-chlorophenyl)-N-[(2S)-1-hydroxypropan-2-yl]pyrimidine-4-carboxamide]: the 50% inhibitory concentration (IC50) on Human AhR came out at 640 nM; at Mouse AhR it was 532 nM.
Turning to `C[C@@H](CO)NC(=O)c1cc(-c2ccc(Cl)cc2)nc(-c2cccc(F)c2)n1` [Example 4, 6-(4-Chlorophenyl)-2-(3-fluorophenyl)-N-[(2S)-1-hydroxypropan-2-yl]pyrimidine-4-carboxamide], the IC50 stood at 1.69 nM against Human AhR and 3.38 nM on Mouse AhR.
Turning to `C[C@@H](CO)NC(=O)c1cc(-c2ccc(OC(F)(F)F)cc2)nc(-c2cccc(F)c2)n1` [Example 5, 2-(3-Fluorophenyl)-N-[(2S)-1-hydroxypropan-2-yl]-6-[4-(trifluoromethoxy)phenyl]pyrimidine-4-carboxamide], the figures for the IC50 on Human AhR and at Mouse AhR were 1.27 nM and 1.28 nM, respectively.
The matching figures for `C[C@H](CO)NC(=O)c1cc(-c2ccc(OC(F)(F)F)cc2)nc(-c2cccc(F)c2)n1` [Example 6, 2-(3-Fluorophenyl)-N-[(2R)-1-hydroxypropan-2-yl]-6-[4-(trifluoromethoxy)phenyl]pyrimidine-4-carboxamide]: 12.2 nM and 17.8 nM.
The matching figures for `CC(C)(O)CNC(=O)c1cc(-c2ccc(OC(F)(F)F)cc2)nc(-c2cccc(F)c2)n1` [Example 7, 2-(3-Fluorophenyl)-N-(2-hydroxy-2-methylpropyl)-6-[4-(trifluoromethoxy)phenyl]pyrimidine-4-carboxamide]: above 20000 nM and above 20000 nM.
The matching figures for `CC(C)(O)CNC(=O)c1cc(-c2ccc(C(F)(F)F)cc2)nc(-c2cccc(F)c2)n1` [Example 8, 2-(3-Fluorophenyl)-N-(2-hydroxy-2-methylpropyl)-6-[4-(trifluoromethyl)phenyl]pyrimidine-4-carboxamide]: above 20000 nM and above 20000 nM.
As to `C[C@@H](CO)NC(=O)c1cc(-c2cccc(F)c2)nc(-c2ccc(C(F)(F)F)cc2)n1` [Example 9, 6-(3-Fluorophenyl)-N-[(2S)-1-hydroxypropan-2-yl]-2-[4-(trifluoromethyl)phenyl]pyrimidine-4-carboxamide], the IC50 against Human AhR is 15.3 nM; on Mouse AhR, 8.64 nM.
Consider `C[C@@H](CO)NC(=O)c1cc(-c2cccc(F)c2)nc(-c2ccc(Cl)cc2)n1` [Example 10, 2-(4-Chlorophenyl)-6-(3-fluorophenyl)-N-[(2S)-1-hydroxypropan-2-yl]pyrimidine-4-carboxamide], for which the IC50 at Human AhR worked out at 35.3 nM; at Mouse AhR, 23.8 nM.
The matching figures for `C[C@@H](CO)NC(=O)c1cc(-c2cccc(F)c2)nc(-c2ccc(OC(F)(F)F)cc2)n1` [Example 11, 6-(3-Fluorophenyl)-N-[(2S)-1-hydroxypropan-2-yl]-2-[4-(trifluoromethoxy)phenyl]pyrimidine-4-carboxamide]: 41.1 nM and 11.5 nM.
For the compound `C[C@@H](CO)NC(=O)c1cc(-c2ccc(OC(F)(F)F)cc2)nc(-c2ccc(OC(F)(F)F)cc2)n1` [Example 12, N-[(2S)-1-hydroxypropan-2-yl]-2,6-bis[4-(trifluoromethoxy)phenyl]pyrimidine-4-carboxamide], the half-inhibitory concentration (IC50) against Human AhR was above 20000 nM; against Mouse AhR, > 20000 nM and 17900 nM.
With `CC(C)(O)CNC(=O)c1cc(-c2ccc(OC(F)(F)F)cc2)nc(-c2ccc(Cl)cc2)n1` [Example 14, 2-(4-chlorophenyl)-N-(2-hydroxy-2-methylpropyl)-6-[4-(trifluoromethoxy)phenyl]pyrimidine-4-carboxamide], the figures for the IC50 on Human AhR and at Mouse AhR were 234 nM and 148 nM, respectively.
The matching figures for `COc1ccc(-c2nc(C(=O)NCC(C)(C)O)cc(-c3ccc(OC(F)(F)F)cc3)n2)cc1` [Example 15, N-(2-hydroxy-2-methylpropyl)-2-(4-methoxyphenyl)-6-[4-(trifluoromethoxy)phenyl]pyrimidine-4-carboxamide]: 390 nM and above 20000 nM.
For the compound `CC(C)(O)CNC(=O)c1cc(-c2ccc(OC(F)(F)F)cc2)nc(-c2cccc(C#N)c2)n1` [Example 20, 2-(3-cyanophenyl)-N-(2-hydroxy-2-methylpropyl)-6-[4-(trifluoromethoxy)phenyl]pyrimidine-4-carboxamide], the IC50 was found to be 11.4 nM at Human AhR and 125 nM against Mouse AhR.
The matching figures for `C[C@@H](CO)NC(=O)c1cc(-c2ccc(OC(F)(F)F)cc2)nc(-c2ccc(F)cc2)n1` [Example 28, 2-(4-fluorophenyl)-N-[(2S)-1-hydroxypropan-2-yl]-6-[4-(trifluoromethoxy)phenyl]pyrimidine-4-carboxamide]: 220 nM and 108 nM.
The matching figures for `C[C@@H](CO)NC(=O)c1cc(-c2ccc(OC(F)(F)F)cc2)nc(-c2ccc(Cl)cc2)n1` [Example 29, 2-(4-chlorophenyl)-N-[(2S)-1-hydroxypropan-2-yl]-6-[4-(trifluoromethoxy)phenyl]pyrimidine-4-carboxamide]: 525 nM and 697 nM.
The matching figures for `Cc1cccc(-c2nc(C(=O)N[C@@H](C)CO)cc(-c3ccc(OC(F)(F)F)cc3)n2)c1` [Example 31, N-[(2S)-1-hydroxypropan-2-yl]-2-(3-methylphenyl)-6-[4-(trifluoromethoxy)phenyl]pyrimidine-4-carboxamide]: 26.4 nM and 46.9 nM.
On Mouse AhR, `C[C@@H](CO)NC(=O)c1cc(-c2ccc(Cl)cc2)nc(-c2cc(F)cc(F)c2)n1` [Example 74, 6-(4-chlorophenyl)-2-(3,5-difluorophenyl)-N-[(2S)-1-hydroxypropan-2-yl]pyrimidine-4-carboxamide] came in with an IC50 of 17 nM.
Regarding `O=C(NC(CO)C1CCC1)c1cc(-c2ccc(OC(F)(F)F)cc2)nc(-c2cccc(F)c2)n1` (stereo not drawn) [Example 85, N-(1-cyclobutyl-2-hydroxyethyl)-2-(3-fluorophenyl)-6-[4-(trifluoromethoxy)phenyl]pyrimidine-4-carboxamide], the midpoint of inhibition against Mouse AhR, the IC50, lay at 12.8 nM.
